The record followed here is PubChem BioAssay (NCI).

Some test systems named below: SK-OV-3 ovarian; SF-268 CNS; OVCAR-3 ovarian; NCI-H522 lung; CCRF-CEM leukemia; LOX IMVI melanoma; A498 renal; HCC-2998 colon; SR leukemia.
Test in all cases: growth of human tumour cells (NCI), 48 h

Several values for one entry are separate records, joined by “and”; a condition that tells them apart may be missing. Equal values may be shown once.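 Results reflect a 48-hour exposure of cells in 96-well plates to compound at five concentrations. At the GI50, growth is halved. TGI denotes the concentration required for complete inhibition of growth.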

With `S=C(/N=c1\sc(Nc2ccc(Cl)cc2)nc2sc3c(c12)CCN(N1CCc2c(sc4nc(Nc5ccc(Cl)cc5)s/c(=N\C(=S)Nc5ccc(Cl)cc5)c24)C1)C3)Nc1ccc(Cl)cc1`, the TGI was 66.4 µM in the experiment on SK-OV-3 ovarian, greater than 100 µM in the experiment on SF-268 CNS, greater than 100 µM with OVCAR-3 ovarian and greater than 100 µM with NCI-H522 lung.
For `CCN1CCCC(NCc2c3ccccc3c(CNC3CCCN(CC)C3)c3ccccc23)C1` (stereo not given), the TGI worked out at 41.4 µM in the experiment with CCRF-CEM leukemia; 22.3 µM with LOX IMVI melanoma; 36.7 µM with SK-OV-3 ovarian; 38.4 µM with SF-268 CNS; 26.1 µM in the experiment with OVCAR-3 ovarian; 28.2 µM with A498 renal. The TGI turned out to be 8.12 µM in the experiment with NCI-H522 lung and 27.9 µM in the experiment with HCC-2998 colon.
For the compound `N=C(N)c1ccc(-c2ccc(-c3cccs3)s2)cc1`, the GI50 was 4.15 µM in the experiment with SK-OV-3 ovarian, 1.87 µM with SF-268 CNS, 0.462 µM in the experiment with A498 renal and 0.747 µM in the experiment on HCC-2998 colon. For the same compound, the TGI in the experiment on SK-OV-3 ovarian was 9.64 µM; in the experiment on SF-268 CNS it was 4.41 µM; with A498 renal, 3.04 µM; with HCC-2998 colon it was 2.17 µM.
Consider `COc1c(O)c2c3c(c(C)cc(O)c3c1O)C(=O)C(O)(C(C)(C)C(C)=O)C2=O` (stereo not given), for which the TGI in the experiment on CCRF-CEM leukemia, in the experiment on LOX IMVI melanoma, in the experiment with SK-OV-3 ovarian, in the experiment on SF-268 CNS, with OVCAR-3 ovarian and in the experiment on NCI-H522 lung was greater than 100 µM in each case. Besides, the GI50 in the experiment on LOX IMVI melanoma was 33 µM and 67.6 µM; in the experiment on NCI-H522 lung, 49.7 µM and > 100 µM.
As to `C=Cc1ccc(C)[n+](C[Si](C)(C)O[Si](C)(C)C[n+]2cc(C=C)ccc2C)c1`, the TGI in the experiment with CCRF-CEM leukemia, with LOX IMVI melanoma, in the experiment with SK-OV-3 ovarian, in the experiment with SF-268 CNS, in the experiment with OVCAR-3 ovarian and in the experiment with SR leukemia was greater than 100 µM in each case. In addition, the TGI with NCI-H522 lung and with HCC-2998 colon was greater than 100 µM each time.
Turning to `COc1ccc(CC2c3c(cc(OC)c(OC)c3OC)CCN2C)cc1OC` (stereo not given), the TGI with CCRF-CEM leukemia, with SF-268 CNS, in the experiment on OVCAR-3 ovarian, in the experiment with A498 renal, with NCI-H522 lung and in the experiment on HCC-2998 colon was greater than 100 µM each time.
In the case of `CC1=NN(C(=O)CC(=O)Nc2ccccc2F)C(=O)C1N=Nc1ccccc1[N+](=O)[O-]` (stereo not given), the TGI in the experiment on CCRF-CEM leukemia, in the experiment with SK-OV-3 ovarian, in the experiment on SF-268 CNS, in the experiment with OVCAR-3 ovarian and with NCI-H522 lung was greater than 100 µM throughout.
In the case of `CC12CCC3C(CCC4CC(OC(=O)Cc5ccc(N(CCCl)CCCl)cc5)CCC43C)C1CCC(=O)N2` (stereo not given), the TGI in the experiment on CCRF-CEM leukemia stood at 22.7 µM; in the experiment with SK-OV-3 ovarian it was 32.5 µM; with SF-268 CNS, 31.1 µM; with OVCAR-3 ovarian, 32.1 µM; with SR leukemia it was 16.8 µM; in the experiment with A498 renal, 31.4 µM. For the same compound, the values for the TGI in the experiment on NCI-H522 lung and in the experiment with HCC-2998 colon were 28.3 µM and 41.6 µM, respectively.
For the compound `CC(C(=O)N1C(=O)N(C(=O)C(C)C(O)c2ccccc2)C2CCCCC21)C(O)c1ccccc1` (stereo not given), the TGI with CCRF-CEM leukemia, in the experiment on LOX IMVI melanoma, with SF-268 CNS, in the experiment on OVCAR-3 ovarian, in the experiment with SR leukemia and in the experiment on NCI-H522 lung was greater than 100 µM each time.
Take `O=C1Sc2ccccc2C(=O)N2CSCC12` (stereo not given): the TGI in the experiment with CCRF-CEM leukemia, in the experiment on LOX IMVI melanoma, in the experiment on SK-OV-3 ovarian, with SF-268 CNS, in the experiment on OVCAR-3 ovarian and with SR leukemia was greater than 100 µM each time. Also, the TGI with NCI-H522 lung and in the experiment on HCC-2998 colon was greater than 100 µM in each case.
Turning to `COc1ccc(-c2oc(/C=N/NC(N)=S)c([N+](=O)[O-])c2-c2ccc(OC)c(OC)c2)cc1OC`, the TGI amounted to 66 µM in the experiment on LOX IMVI melanoma; 69.3 µM in the experiment on SK-OV-3 ovarian; 58 µM with SF-268 CNS; 47.9 µM with OVCAR-3 ovarian; 65.3 µM in the experiment on NCI-H522 lung.
In the case of `N/C(=N\S(=O)(=O)c1c(C(F)(F)F)cccc1C(F)(F)F)Nc1ccc(Cl)cc1`, the TGI in the experiment with LOX IMVI melanoma was 48.1 µM; in the experiment with SK-OV-3 ovarian, greater than 100 µM; with SF-268 CNS, greater than 100 µM; in the experiment on OVCAR-3 ovarian it was greater than 100 µM; in the experiment with SR leukemia it was greater than 100 µM; in the experiment on A498 renal it was 50.6 µM. In addition, the TGI in the experiment on NCI-H522 lung amounted to 30.6 µM.
Take `CC1CN=C(N(C(=O)Nc2ccc(F)c(Cl)c2)c2ccccc2)S1` (stereo not given): the TGI in the experiment with CCRF-CEM leukemia was greater than 100 µM; with LOX IMVI melanoma, 32.5 µM; with SK-OV-3 ovarian, 98.7 µM; with SF-268 CNS, greater than 100 µM; in the experiment with OVCAR-3 ovarian, greater than 100 µM; in the experiment on A498 renal, 62.1 µM.
`CCN(CC)CCCNC(=O)c1ccc([N+](=O)[O-])cc1O`: the TGI with CCRF-CEM leukemia, in the experiment on LOX IMVI melanoma, with SK-OV-3 ovarian, in the experiment with SF-268 CNS, in the experiment with OVCAR-3 ovarian and in the experiment on A498 renal was greater than 100 µM in each case. Besides, the TGI with NCI-H522 lung and with HCC-2998 colon was greater than 100 µM throughout.
